{"source": "patent US12589158B2", "about": "(priority 2022, dated 2026)", "key": {"[1]": {"experiment": "Pharmacokinetics following single administration in SD rat", "parameters": "species or system SD rats", "settings": "male, SD, in vivo, sc, 50 nmol/kg", "procedure": "The compound is administrated to male SD rats (230-268 g, n=3) at a dose of 50.0 nmol/kg (s.c.) or 25.0 nmol/kg (i.v.). […] 30.0 μL of thawed plasma sample is taken. 150 μL of acetonitrile solution (containing 5 ng mL^−1 Verapamil, 50 ng·mL^−1 Glibenclamide, 200 ng·mL^−1 Tolbutamide and 200 ng·mL^−1 Diclofenac) are added to precipitate protein. The mixture is vortexed for 5 minutes, and centrifuged at 3700 rpm for 8 minutes. 70.0 μL of the supernatant is taken, into which 70.0 μL of 0.5% aqueous formic acid solution is added. The mixture is vortexed for 5 minutes. 15 μL of the mixture solution is sampled and injected into the LC-MS/MS to determine the drug concentration in plasma. 20.0 μL of thawed plasma sample is taken. 60 μL of acetonitrile solution (containing 5 ng mL^−1 Verapamil, 50 ng·mL^−1 Glibenclamide, 200 ng·mL^−1 Tolbutamide and 200 ng·mL^−1 Diclofenac) are added to precipitate protein. […] The mixture is vortexed for 10 minutes. 10.0 μL of the mixture solution is sampled and injected into the LC-MS/MS to determine the drug concentration in plasma. 30.0 μL of thawed plasma sample is taken. 150 μL of acetonitrile solution (containing 5 ng mL^−1 Verapamil, 50 ng mL^−1 Glibenclamide, 200 ng·mL^−1 Tolbutamide and 200 ng·mL^−1 Diclofenac) are added to precipitate protein. The mixture is vortexed for 5 minutes, and centrifuged at 3700 rpm for 8 minutes. 70.0 μL of the supernatant is taken, into which 70.0 μL of 0.5% aqueous formic acid solution is added. The mixture is vortexed for 5 minutes. 10.0 μL of the mixture solution is sampled and injected into the LC-MS/MS to determine the drug concentration in plasma."}, "[2]": {"experiment": "Pharmacokinetics in C57 mice", "settings": "C57, mouse, in vivo", "procedure": "After subcutaneous or intravenous administration to C57 mice, plasma is collected and the drug concentration in plasma is determined to illustrate the in vivo pharmacokinetic properties of the compound according to the present invention. […] 20.0 μL of thawed plasma sample is taken. 20 μL of 50% aqueous methanol solution (containing 100 ng mL^−1 internal standard) and 60 μL of acetonitrile are added sequentially to precipitate protein. The mixture is vortexed for 5 minutes, and centrifuged at 3700 rpm for 8 minutes. 50.0 μL of the supernatant is taken, into which 50.0 μL of 0.5% aqueous formic acid solution is added. The mixture is vortexed for 5 minutes. 50 μL of the mixture solution is sampled and injected into the LC-MS/MS to determine the drug concentration in plasma."}, "[3]": {"experiment": "Pharmacokinetics in cynomolgus monkeys", "settings": "cynomolgus monkey, in vivo", "procedure": "After subcutaneous or intravenous administration to cynomolgus monkeys, plasma is collected and the drug concentration in plasma is determined to illustrate the in vivo pharmacokinetic properties of the compound according to the present invention. The compound is dissolved in 1.4% PG in 8 mM Na2HPO4 Buffer (pH 7.39), and filtered through a filter membrane (PTFE, 0.45 μm) to obtain 25 and 12.5 nmol/mL solution of the compound respectively. The obtained solutions are administered to cynomolgus monkeys (4-8 kg) at a dose of 25 nmol/kg subcutaneously (s.c.) or 12.5 nmol/kg intravenously (i.v.). […] The blood samples are centrifuged at 2200 g for 10 minutes to obtain a plasma, which is stored at −90° C. to −60° C. for further analysis and assay.\n70.0 μL of thawed plasma sample is taken. 70 μL of acetonitrile (containing 1 ng/ml of the internal standard) is added to precipitate protein. The mixture is vortexed for 1 minute, and centrifuged at 14000 rpm for 10 minutes. 60.0 μL of the supernatant is taken, into which 60.0 μL of 0.5% aqueous formic acid solution is added. The mixture is vortexed for 5 minutes. 10 μL of the mixture solution is sampled and injected into the LC-MS/MS to determine the drug concentration in plasma.\nBased on the drug concentration in plasma of the compounds in the cynomolgus monkeys, the pharmacokinetic parameters are calculated by applying the software Winnolin 8.2 in a non-compartmental model, and the results are shown in Table 9 and Table 10 below."}, "[4]": {"type": "in vivo", "settings": "rat, in vivo, male SD rats", "procedure": "(§1) 77 SD male rats (SPF grade) are selected and randomly divided into 10 groups based on body weight. Group 1 is the vehicle control group, including 5 animals. […] Group 5 to Group 7 are the groups administrated with the test substance 1; and Group 8 to Group 10 are the groups administrated with the test substance 2, each group including 8 animals, wherein 5 animals for primary test, and 3 animals for toxicokinetics test, and the administration dose is 1, 3 and 10 mg/kg respectively. Each of the above groups is continuously administered twice a week for 2 weeks (administrating at Day 1, Day 5, Day 8, Day 12 and Day 15).\n(§2) During the experiment, the cage condition monitoring, detailed clinical observations, determination of the food consumption, determination of body weight, measurement of the blood biochemical and hematology indicator, investigation of the gross anatomy, weighing of the organ, studying on toxicokinetic are performed on all the groups of the animals.\n(§3) Original data during each time period is tabulated. The average values and standard deviations and/or group change are calculated for each assay endpoint based on the group and sex. For each endpoint, the administrated group will be compared with the control group in the following aspect. A logarithmic conversion is performed to the endpoint data as desired prior to the start of the specific analyses."}, "SD male rats": {"system": "SD male rats", "type": "in vivo", "procedure": "as §1, §2, §3"}, "[5]": {"settings": "in vivo"}}, "note": "Read-outs that look alike come from different tables or passages of the source."}
{"smiles": "CC[C@H](C)[C@H](NC(=O)[C@H](CC(C)C)NC(=O)[C@H](Cc1c[nH]c2ccccc12)NC(=O)[C@H](CCC(N)=O)NC(=O)[C@@H](NC(=O)[C@H](Cc1ccccc1)NC(=O)[C@H](C)NC(=O)[C@H](CCCCNC(=O)COCCOCCNC(=O)COCCOCCNC(=O)CC[C@H](NC(=O)CCCCCCCCCCCCCCCCCCC(=O)O)C(=O)O)NC(=O)[C@H](CCC(N)=O)NC(=O)[C@H](C)NC(=O)[C@@H](NC(=O)[C@H](CCCCN)NC(=O)[C@H](CC(=O)O)NC(=O)[C@H](CC(C)C)NC(=O)C(C)(C)NC(=O)[C@@H](NC(=O)[C@H](CO)NC(=O)[C@H](Cc1ccc(O)cc1)NC(=O)[C@H](CC(=O)O)NC(=O)[C@H](CO)NC(=O)[C@@H](NC(=O)[C@H](Cc1ccccc1)NC(=O)[C@@H](NC(=O)CNC(=O)[C@H](CCC(=O)O)NC(=O)C(C)(C)NC(=O)[C@@H](N)Cc1ccc(O)cc1)[C@@H](C)O)[C@@H](C)O)[C@@H](C)CC)[C@@H](C)CC)C(C)C)C(=O)N[C@@H](C)C(=O)NCC(=O)NCC(=O)N1CCC[C@H]1C(=O)N[C@@H](CO)C(=O)N[C@@H](CO)C(=O)NCC(=O)N[C@@H](C)C(=O)N1CCC[C@H]1C(=O)N1CCC[C@H]1C(=O)N1CCC[C@H]1C(=O)N[C@@H](CO)C(N)=O", "note": "[Tirzepatide]", "values": [{"measurement": "AUC(0-inf)", "setting": "[1]", "result": "3.67 ± 1.19", "unit": "µM·h"}, {"measurement": "AUC(0-t)", "setting": "[1]", "result": "3.61 ± 1.2", "unit": "µM·h"}, {"measurement": "Cmax", "setting": "[1]", "result": "128 ± 42.8", "unit": "nM"}, {"measurement": "MRT inf", "setting": "[1]", "result": "20.3 ± 0.755", "unit": "h"}, {"measurement": "MRT last", "setting": "[1]", "result": "19 ± 0.265", "unit": "h"}, {"measurement": "Tmax", "setting": "[1]", "result": "7.33 ± 1.15", "unit": "h"}, {"measurement": "half-life", "setting": "[1]", "result": "11.4 ± 1.79", "unit": "h"}, {"measurement": "AUC(0-inf)", "setting": "[2]; iv", "result": 12800, "unit": "ng·h/mL"}, {"measurement": "AUC(0-t)", "setting": "[2]; iv", "result": 12700, "unit": "ng·h/mL"}, {"measurement": "C0", "setting": "[2]; iv", "result": 1900, "unit": "ng/mL"}, {"measurement": "MRT inf", "setting": "[2]; iv", "result": 12, "unit": "h"}, {"measurement": "MRT last", "setting": "[2]; iv", "result": 11.4, "unit": "h"}, {"measurement": "half-life", "setting": "[2]; iv", "result": 10.5, "unit": "h"}, {"measurement": "AUC(0-inf)", "setting": "[2]; sc", "result": 19700, "unit": "ng·h/mL"}, {"measurement": "AUC(0-t)", "setting": "[2]; sc", "result": 19400, "unit": "ng·h/mL"}, {"measurement": "Cmax", "setting": "[2]; sc", "result": 871, "unit": "ng/mL"}, {"measurement": "MRT inf", "setting": "[2]; sc", "result": 15.3, "unit": "h"}, {"measurement": "MRT last", "setting": "[2]; sc", "result": 14.5, "unit": "h"}, {"measurement": "Tmax", "setting": "[2]; sc", "result": 6, "unit": "h"}, {"measurement": "half-life", "setting": "[2]; sc", "result": 9.21, "unit": "h"}, {"measurement": "AUC(0-inf)", "setting": "[3]; iv, 12.5 nmol/kg", "result": "58500 ± 11900", "unit": "ng·h/mL"}, {"measurement": "AUC(0-t)", "setting": "[3]; iv, 12.5 nmol/kg", "result": "57600 ± 11800", "unit": "ng·h/mL"}, {"measurement": "C0", "setting": "[3]; iv, 12.5 nmol/kg", "result": "1170 ± 160", "unit": "ng/mL"}, {"measurement": "MRT inf", "setting": "[3]; iv, 12.5 nmol/kg", "result": "74.3 ± 8.76", "unit": "h"}, {"measurement": "MRT last", "setting": "[3]; iv, 12.5 nmol/kg", "result": "68.3 ± 8.61", "unit": "h"}, {"measurement": "half-life", "setting": "[3]; iv, 12.5 nmol/kg", "result": "59.5 ± 5.22", "unit": "h"}, {"measurement": "AUC(0-inf)", "setting": "[3]; sc, 25 nmol/kg", "result": "150000 ± 39100", "unit": "ng·h/mL"}, {"measurement": "AUC(0-t)", "setting": "[3]; sc, 25 nmol/kg", "result": "148000 ± 38200", "unit": "ng·h/mL"}, {"measurement": "Cmax", "setting": "[3]; sc, 25 nmol/kg", "result": "1300 ± 300", "unit": "ng/mL"}, {"measurement": "MRT inf", "setting": "[3]; sc, 25 nmol/kg", "result": "105 ± 7.58", "unit": "h"}, {"measurement": "MRT last", "setting": "[3]; sc, 25 nmol/kg", "result": "99.6 ± 6.26", "unit": "h"}, {"measurement": "Tmax", "setting": "[3]; sc, 25 nmol/kg", "result": "22.7 ± 10.1", "unit": "h"}, {"measurement": "half-life", "setting": "[3]; sc, 25 nmol/kg", "result": "62.5 ± 6.07", "unit": "h"}, {"measurement": "MTD", "setting": "[4]; MTD for 2 weeks, twice a week", "result": 2.08, "unit": "µmol/kg"}, {"measurement": "MTD", "setting": "[4]; continuously administered twice a week for 2 weeks", "result": "> 10", "unit": "mg/kg"}, {"measurement": "Toxicokinetic: Cmax and AUC versus dose", "setting": "SD male rats; male SD rats, 1, 3, 10 mg/kg", "result": "increase nearly proportionally to the dose"}, {"measurement": "Toxicokinetic: accumulation", "setting": "SD male rats; male SD rats, continuously administered twice a week for 2 weeks", "result": "no substantial accumulation"}, {"measurement": "Safety Window (based on dosage)", "setting": "SD male rats; rat MTD for 2 weeks vs efficacy dose in db/db mice", "result": 416}, {"measurement": "Safety Window (based on exposure AUClast)", "setting": "SD male rats; rat, in vivo", "result": 130}, {"measurement": "dose at which decrease of the body weight is observed after the first administration", "setting": "SD male rats; rat, in vivo", "result": "≥ 3", "unit": "mg/kg"}, {"measurement": "heart rate recovery time", "setting": "[5]", "result": "> 120", "unit": "h"}]}
